Test results taken from patent US20260138976A1 (Hoffmann-La Roche Inc., priority 2022, published 2026).
pEC50, pIC50: −log10 of the molar value.

Key:
[1] = target: T1, DGK α kinase (Homo sapiens, UniProt P23743); assay: DGKalpha kinase ADP Glo assay run by Reaction Biology Corp.; format: biochemical; settings: 2 nM kinase, 50 µM ATP, 500 μM DLG, 10-dose duplicate
T1 construct: purchased Reaction Biology Corp. (contract assay service)
Protocol: DGK α and ζ kinases use ATP to phosphorylate the substrate 1,2-dilauroyl-sn-glycerol (DLG). ATP is converted to ADP as a result of this enzymatic reaction.
After the kinase reaction, an ATP-depletion reagent is added to terminate the kinase reaction and deplete any remaining ATP, leaving only ADP. Second, a detection reagent is added to simultaneously convert ADP to ATP and allow the newly synthesized ATP to be converted to light using a coupled luciferase/luciferin reaction.
DGK α and ζ kinase ADP Glo assays were ran by Reaction Biology Corp., 1 Great Valley Parkway, Suite 2, Malvern, 19355, PA, USA. Information provided by the service provider are the following: DGK α and ζ kinases were used at 2 nM final concentration. Reactions were carried out at 50 µM ATP. 500 μM of the substrate DLG (Dilauroyl-sn-glycerol) was used.

[2] = tested on: MV-3 cells; assay: T-cell - TCB - MV3 killing assay; format: cell-based, human; settings: for Emax: Homo sapiens, MV-3, 120 h, % TCL normalized: MCSP-TCB only = neutral control, 20 μM reference compound A1 = 100%, read-out: MSCP TCB killing MV-3 cells 5 d Emax (%); for pEC50: primary human T-cells + MV-3 RFP cells, MCSP-TCB 1.5 pM-5 pM, 120 hours imaging, read-out: MSCP TCB killing MV-3 cells 5 d EC50
Protocol: All culturing steps are executed at 5% CO2, 37° C. and 95% humidity. MV-3 RFP cells are cultured in MV-3 medium (DMEM+10% FBS, 1× PenStrep and 0.5 μg/mL Puromycin) for at least 3 weeks. Cultured MV-3 cells at 80% confluency are washed once with PBS−− and trypsinized until detached. […] Cells are seeded with 100 μL/well into a 96-well plate (TTP, #92696), and placed for 40 minutes without moving at room temperature in order to achieve evenly distributed attachment of cells. Plates are then incubated until further use.
On the next day, expanded primary human T-cells are thawed and resuspended in T-cell medium to 4*10^6 cells/mL. For 3 hours, they are cultured in a 6-well plate with 6 mL per well at maximum. After culturing the T-cells, they are filtered through a cell strainer (Miltenyi Biotech, #130-041-407), counted again, and cell concentration is adjusted to 2*10^6 cells/mL.
MCSP-TCB or PBS are pre-diluted in T-cell medium (concentration depending on T-cell donor), 4 times more concentrated than the end-concentration. 60 μL/well of pre-dilutions are then distributed into a round bottom plate (Costar, #3799) according to plate layout. Compounds are added in a 9 pt dose response with the Tecan D300e Digital Dispenser, as well 4 times more concentrated than the end-concentration. DMSO concentration of all wells is adjusted to 0.8%, resulting in 0.2% as final concentration.
60 μL per well of T-cell suspension are added to the prepared round bottom plate and resuspended with a manual multichannel. 100 μL/well of the resuspended T-cell suspension including treatments are then transferred cautiously to the over-night cultured MV-3 cells according to plate layout. 100 μL T-cell medium only is added to the outer MV-3 wells only. Final compound DR is starting at 20 μM with a dilution factor of 3.333. Final TCB concentration is between 1.5 pM to 5 pM and was determined for each T-cell donor individually by running TCB titrations. For each donor, a TCB concentration was chosen which corresponds to 10-20% MV3 baseline cell killing in the absence of compound treatment. Positive control is the reference compound A1 which is added in a DR, as well as additional wells with only 20 μM. 20 μM of reference compound A1 represent the positive stimulator control, TCB only (DMSO wells) the neutral control.
After transfer of T-cells with treatment pre-dilutions, MV-3 cells are imaged by time-lapse microscopy using IncucyteZOOM™ (Essen BioScience, MI, USA). Imaging is performed every 3 hours for a total of 120 hours (10× objective, phase and red image channels, acquisition time 400 ms, Green/Red 4614 optical module). RFP object count per well is analysed in the IncucyteZOOM™ Software (Version 2019B Rev2) with a mask that was previously created and optimized for MV-3 cells. Raw data is exported as object count/well and values are normalized as % TCL compared to wells with MV-3 only, representing 100% growth and therefore 0% TCL.
Calculated % TCL values are analysed in Genedata Screener using Roche Normalization PCT_POS_CTRL with MCSP-TCB only set as Neutral Control and 20 μM of the reference compound A1 set as Stimulator Control/100%.
Induced TCL by compounds without TCB treatment or toxicity (observed in the PBS condition) were be flagged.

T1 sequence (P23743 whole entry): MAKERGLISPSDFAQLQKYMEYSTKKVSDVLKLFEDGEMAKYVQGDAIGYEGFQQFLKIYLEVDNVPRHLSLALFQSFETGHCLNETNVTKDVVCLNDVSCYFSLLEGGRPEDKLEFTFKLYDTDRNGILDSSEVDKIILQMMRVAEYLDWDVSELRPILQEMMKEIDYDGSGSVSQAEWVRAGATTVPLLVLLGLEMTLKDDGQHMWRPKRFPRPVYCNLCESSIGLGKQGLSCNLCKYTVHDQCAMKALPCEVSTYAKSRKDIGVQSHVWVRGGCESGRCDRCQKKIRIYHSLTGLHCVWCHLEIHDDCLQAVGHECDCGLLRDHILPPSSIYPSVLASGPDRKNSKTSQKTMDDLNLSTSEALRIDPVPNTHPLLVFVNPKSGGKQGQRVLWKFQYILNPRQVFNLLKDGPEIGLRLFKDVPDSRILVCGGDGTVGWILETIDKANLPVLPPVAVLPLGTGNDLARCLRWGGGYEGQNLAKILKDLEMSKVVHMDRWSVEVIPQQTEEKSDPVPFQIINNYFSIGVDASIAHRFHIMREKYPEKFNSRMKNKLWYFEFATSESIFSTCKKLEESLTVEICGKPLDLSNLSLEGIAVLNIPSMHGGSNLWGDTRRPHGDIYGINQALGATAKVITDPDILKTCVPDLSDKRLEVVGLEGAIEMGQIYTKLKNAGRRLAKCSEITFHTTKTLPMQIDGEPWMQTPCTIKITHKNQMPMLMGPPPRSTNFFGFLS

Cc1noc(-c2ccc(CN3C(=O)[C@@H](N)CS(=O)(=O)c4ccc(-c5nnc(C(C)(C)C)o5)cc43)cc2)n1 [Example 20, (3R)-3-amino-7-(5-tert-butyl-1,3,4-oxadiazol-2-yl)-5-[[4-(3-methyl-1,2,4-oxadiazol-5-yl)phenyl]methyl]-1,1-dioxo-2,3-dihydro-1λ^6,5-benzothiazepin-4-one]
pIC50 [1]: 5.85

CC(C)(C#N)c1nnc(-c2ccc3c(c2)N(Cc2ccc(-c4ccc(C(F)(F)F)cn4)cc2)C(=O)[C@@H](N)CS3(=O)=O)o1 [Example 47]
Emax [2]: 103%
pEC50 [2]: 6.55
pIC50 [1]: 6.62

C[C@@](N)(c1nnc(-c2ccc3c(c2)N(Cc2ccc(-c4noc(C(F)(F)F)n4)cc2)C(=O)[C@@H](N)CS3(=O)=O)o1)C(F)(F)F [Example 52, (3R)-3-amino-7-[5-[(1R)-1-amino-2,2,2-trifluoro-1-methyl-ethyl]-1,3,4-oxadiazol-2-yl]-1,1-dioxo-5-[[4-[5-(trifluoromethyl)-1,2,4-oxadiazol-3-yl]phenyl]methyl]-2,3-dihydro-1λ^6,5-benzothiazepin-4-one]
Emax [2]: 95%
pEC50 [2]: 7.28
pIC50 [1]: 7.20

C[C@](N)(c1nnc(-c2ccc3c(c2)N(Cc2ccc(-c4noc(C(F)(F)F)n4)cc2)C(=O)[C@@H](N)CS3(=O)=O)o1)C(F)(F)F [Example 53, (3R)-3-amino-7-[5-[(1S)-1-amino-2,2,2-trifluoro-1-methyl-ethyl]-1,3,4-oxadiazol-2-yl]-1,1-dioxo-5-[[4-[5-(trifluoromethyl)-1,2,4-oxadiazol-3-yl]phenyl]methyl]-2,3-dihydro-1λ^6,5-benzothiazepin-4-one]
Emax [2]: 98%
pEC50 [2]: 6.86
pIC50 [1]: 6.80

N[C@H]1CS(=O)(=O)c2ccc(-c3nnc(N4CCOC(F)(F)C4)o3)cc2N(Cc2ccc(-c3noc(C(F)(F)F)n3)cc2)C1=O [Example 78, (3R)-3-amino-7-[5-(2,2-difluoromorpholin-4-yl)-1,3,4-oxadiazol-2-yl]-1,1-dioxo-5-[[4-[5-(trifluoromethyl)-1,2,4-oxadiazol-3-yl]phenyl]methyl]-2,3-dihydro-1λ^6,5-benzothiazepin-4-one]
Emax [2]: 112%
pEC50 [2]: 7.03
pIC50 [1]: 6.98

COc1ccc(-c2ccc(CN3C(=O)[C@@H](N)CS(=O)(=O)c4ccc(-c5nnc(N(C)CC(F)(F)F)o5)cc43)cc2)cc1 [Example 81, (3R)-3-amino-5-[[4-(4-methoxyphenyl)phenyl]methyl]-7-[5-[methyl(2,2,2-trifluoroethyl)amino]-1,3,4-oxadiazol-2-yl]-1,1-dioxo-2,3-dihydro-1λ^6,5-benzothiazepin-4-one]
Emax [2]: 98%
pEC50 [2]: 6.46
pIC50 [1]: 6.65

CC(C)(C)c1nnc(-c2ccc3c(c2)N(Cc2ccc(-n4cnc(C(F)(F)F)n4)cc2)C(=O)[C@@H](N)CS3(=O)=O)o1 [Example 91, (3R)-3-amino-7-(5-tert-butyl-1,3,4-oxadiazol-2-yl)-1,1-dioxo-5-[[4-[3-(trifluoromethyl)-1,2,4-triazol-1-yl]phenyl]methyl]-2,3-dihydro-126,5-benzothiazepin-4-one]
Emax [2]: 96%
pEC50 [2]: 6.63

CC(C)(C#N)c1nnc(-c2ccc3c(c2)N(Cc2ccc(-n4ccc(C(F)(F)F)n4)cc2)C(=O)[C@@H](N)CS3(=O)=O)o1 [Example 121, 2-[5-[(3R)-3-amino-1,1,4-trioxo-5-[[4-[3-(trifluoromethyl)pyrazol-1-yl]phenyl]methyl]-2,3-dihydro-1λ^6,5-benzothiazepin-7-yl]-1,3,4-oxadiazol-2-yl]-2-methyl-propanenitrile]
Emax [2]: 98%
pEC50 [2]: 6.96

CC(C)(C#N)c1nnc(-c2ccc3c(c2)N(Cc2ccc(-c4ccc(OC(F)(F)F)cn4)cc2)C(=O)[C@@H](N)CS3(=O)=O)o1 [Example 124]
Emax [2]: 100%
pEC50 [2]: 7.64
pIC50 [1]: 7.63

C[C@@](N)(c1nnc(-c2ccc3c(c2)N(Cc2ccc(-n4ccc(C(F)(F)F)n4)cc2)C(=O)[C@@H](N)CS3(=O)=O)o1)C(F)(F)F [Example 157, (3R)-3-amino-7-[5-[(1R)-1-amino-2,2,2-trifluoro-1-methyl-ethyl]-1,3,4-oxadiazol-2-yl]-1,1-dioxo-5-[[4-[3-(trifluoromethyl)pyrazol-1-yl]phenyl]methyl]-2,3-dihydro-1λ^6,5-benzothiazepin-4-one]
Emax [2]: 100%
pEC50 [2]: 6.92

COC(=O)N1CC2CC(c3nnc(-c4ccc5c(c4)N(Cc4ccc(-c6ccc(C(F)(F)F)cn6)cc4)C(=O)[C@@H](N)CS5(=O)=O)o3)(C2)C1 [Example 159, methyl 1-[5-[(3R)-3-amino-1,1,4-trioxo-5-[[4-[5-(trifluoromethyl)-2-pyridyl]phenyl]methyl]-2,3-dihydro-1λ^6,5-benzothiazepin-7-yl]-1,3,4-oxadiazol-2-yl]-3-azabicyclo[3.1.1]heptane-3-carboxylate]
Emax [2]: 102%
pEC50 [2]: 6.78

CC(C)(c1nnc(-c2ccc3c(c2)N(Cc2ccc(-c4noc(C(F)(F)F)n4)cc2)C(=O)[C@@H](N)CS3(=O)=O)o1)C(F)(F)F [Example 166]
Emax [2]: 102%
pEC50 [2]: 8.00
